Values joined by “and” are separate entries in the source; they are usually repeats but may differ in a detail not shown here. Equal entries are not always repeated.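 These data come from cells grown in 96-well plates and exposed to compound for 48 hours at five concentrations. Abbreviation: GI50, concentration required for 50% inhibition of growth. At the TGI there is no net growth.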
Assays:
Experiment in all cases: NCI-60 cell line screen, 48 h
CCRF-CEM leukemia = system: CCRF-CEM leukemia
COLO 205 colon = system: COLO 205 colon
HCC-2998 colon = system: HCC-2998 colon
HCT-116 colon = system: HCT-116 colon
HL-60(TB) leukemia = system: HL-60(TB) leukemia
MALME-3M melanoma = system: MALME-3M melanoma
MCF7 breast = system: MCF7 breast
NCI-H226 lung = system: NCI-H226 lung
T-47D breast = system: T-47D breast
U251 CNS = system: U251 CNS

| Structure (SMILES) | TGI (CCRF-CEM leukemia) [µM] | TGI (COLO 205 colon) | TGI (HCC-2998 colon) | TGI (HCT-116 colon) [µM] | TGI (HL-60(TB) leukemia) [µM] | TGI (MALME-3M melanoma) | TGI (MCF7 breast) [µM] | TGI (NCI-H226 lung) [µM] | TGI (T-47D breast) [µM] | TGI (U251 CNS) [µM] | GI50 (CCRF-CEM leukemia) [µM] | GI50 (COLO 205 colon) [µM] | GI50 (HCC-2998 colon) [µM] | GI50 (HCT-116 colon) [µM] | GI50 (HL-60(TB) leukemia) [µM] | GI50 (MALME-3M melanoma) [µM] | GI50 (MCF7 breast) [µM] | GI50 (NCI-H226 lung) [µM] | GI50 (T-47D breast) [µM] | GI50 (U251 CNS) [µM] |
| --- | --- | --- | --- | --- | --- | --- | --- | --- | --- | --- | --- | --- | --- | --- | --- | --- | --- | --- | --- | --- |
| CCCCCC/C=C\CCCCCCCCCC1=C(CN2CCN(C)CC2)C(=O)C=C(OC)C1=O | 1.95 | 3.37 µM | 23.8 µM | 4.41 | 2.97 | 9.55 µM | 11.6 | 30 | 4.81 | 15 | – | – | – | – | – | – | – | – | – | – |
| NS(=O)(=O)c1cc(C(=O)O)c(O)c2ccccc12 | > 100 | > 100 µM | – | > 100 | > 100 | > 100 µM | > 100 | > 100 | > 100 | > 100 | – | – | – | – | – | – | – | – | – | – |
| CCN(Cc1cccc(Cl)c1)c1ccc(CO)c(Cl)c1 | 35.4 | 7.53 µM | 24.8 µM | 10.3 | 20.9 | 32.8 µM | 11.4 | 0.236 | 1.14 | 14.6 | 11.9 | 2.43 | 11.3 | 0.105 | 3.93 | 15.8 | 0.329 | 0.0905 | 0.205 | 1.09 |
| C=CCC(N[C@H](CO)c1ccccc1)c1cn(Cc2ccccc2Cl)c(=O)n(Cc2ccccc2Cl)c1=O (stereo partly drawn) | 42.5 | 86.8 µM | 27.3 µM | 20.8 | 34 | 81 µM | 68.7 | 49.8 | > 100 | 34 | 10.6 | 14.7 | 10.7 | 6.44 | 5.87 | 34.5 | 16.4 | 13.7 | > 100 | 11.2 |
| N#Cc1cnc(Nc2cc(NC[C@H]3CNCCO3)c(C(F)(F)F)cn2)cn1 | > 100 | 23.6 µM | 30.2 µM | > 100 | 15.4 | 27.8 µM | 23 | 85.3 | 51.5 | 73 | 0.8 | 9.61 | 6.84 | 23.3 | 2.15 | 10.4 | 0.639 | 22.4 | 16.6 | 21.8 |
| CCc1nc2ccc(N=Nc3c(O)ccc4ccccc34)cc2[nH]1 | 26.4 | 39 µM | 29.7 µM | 30.8 | 29.8 | 33.6 µM | 42.2 | 41.1 | 59.7 | 39.9 | – | – | – | – | – | – | – | – | – | – |
| CCCCCCCCCC[C@H](O)[C@H](O)CC[C@@H](O)[C@H]1CC[C@@H]([C@H]2CC[C@H](CCCCCCC[C@@H](O)CC3=C[C@H](C)OC3=O)O2)O1 | – | 4.42 µM and 35.7 µM | 47 µM | 61.6 | 6.74 | 48.3 µM | 77.6 | – | 42.8 | > 100 | – | 18 | – | 0.966 | – | – | 19.2 | 21.2 | 4.22 | – |
| CCCCCCCCCCCCOC1C(CNC(=O)C2OC3OC(C)(C)OC3C2NC(=O)CN2CCN(c3ccc(OC)cc3)CC2)OC2OC(C)(C)OC21 (stereo not drawn) | 16.9 | 4.82 µM | 11 µM | 18.5 | 4.44 | 24.1 µM | 8.29 | 19.2 | 23.4 | 15.8 | 4.1 | 2.26 | 3.4 | 3.26 | 2.13 | 11.9 | 2.81 | 5.56 | 4.33 | 4.74 |
| O=[N+]([O-])c1cc([N+](=O)[O-])c(Nn2c3ccccc3c3ccccc32)c([N+](=O)[O-])c1 | > 100 | – | 12.5 µM and 2.63 µM | 1.18 | – | 4.88 µM and 0.733 µM | 5.86 | 7.5 | – | > 100 | 0.355 | 0.195 | 0.44 | 0.302 | 0.227 | 0.236 | 0.292 | 0.357 | 0.278 | 0.358 |
| Cc1cc2c(-c3nc4ccccn4c3N)c(O)c(O)cc2c(O)c1-c1c(C)cc2c(-c3nc4ccccn4c3N)c(O)c(O)cc2c1O | > 25 | > 25 µM | > 25 µM | > 25 | > 25 | > 25 µM | > 25 | > 25 | > 25 | > 25 | 0.497 | 1.07 | 1.59 | 0.163 | 1.64 | 0.81 | 0.606 | 1.44 | 0.502 | 0.273 |
| CN1CCN(C(=O)COc2ccc(/C=C3\CC4C5CC=C6CC(Cl)CCC6(C)C5CCC4(C)C3=O)cc2)CC1 (stereo not drawn) | > 100 | > 100 µM | > 100 µM | > 100 | – | > 100 µM | > 100 | > 100 | > 100 | > 100 | 3.94 | > 100 | > 100 | 3.08 | – | > 100 | > 100 | > 100 | > 100 | 3.33 |
| COc1ccc(/C=C2/SC(Nc3nc(-c4nc(NC5=NC(=O)/C(=C\c6ccc(OC)cc6)S5)sc4C)c(C)s3)=NC2=O)cc1 | > 50 | > 50 µM | 3.66 µM | 9.78 | > 21.9 | – | > 30.7 | 24.9 | > 50 | 7.32 | 1.68 | 2.42 | 0.82 | 1.2 | 0.397 | – | 1.59 | 4.98 | 7.52 | 1.3 |
| CC1=CC(C)(C)NN1C1=NS(=O)(=O)c2ccccc2N1C | > 100 | > 100 µM | > 100 µM | > 100 | > 100 | – | > 100 | > 100 | > 100 | > 100 | – | – | – | – | – | – | – | – | – | – |
| O=C1C=CC(=O)c2c(O)c3c(c(O)c21)C[C@H](O)[C@H](O)[C@@H]3O | – | 1.12 µM | 21.3 µM | 1.73 | 2.9 | 2.6 µM | 3.49 | 36.7 | 4 | 16.3 | – | – | – | – | – | – | – | – | – | – |

— PubChem BioAssay (NCI)
